Laboratory results: ChEMBL document CHEMBL1139667, “Discovery and SAR study of novel dihydroquinoline containing glucocorticoid receptor ligands” (Bioorg Med Chem Lett, 2006)
Activity calls are given as the source filed them. No cut-off for these calls is given here.

Assays:
Glucocorticoid receptor [1] = target: T1, Glucocorticoid receptor (Homo sapiens, UniProt P04150); assay: Binding affinity to human GR
T1 sequence (P04150 whole entry): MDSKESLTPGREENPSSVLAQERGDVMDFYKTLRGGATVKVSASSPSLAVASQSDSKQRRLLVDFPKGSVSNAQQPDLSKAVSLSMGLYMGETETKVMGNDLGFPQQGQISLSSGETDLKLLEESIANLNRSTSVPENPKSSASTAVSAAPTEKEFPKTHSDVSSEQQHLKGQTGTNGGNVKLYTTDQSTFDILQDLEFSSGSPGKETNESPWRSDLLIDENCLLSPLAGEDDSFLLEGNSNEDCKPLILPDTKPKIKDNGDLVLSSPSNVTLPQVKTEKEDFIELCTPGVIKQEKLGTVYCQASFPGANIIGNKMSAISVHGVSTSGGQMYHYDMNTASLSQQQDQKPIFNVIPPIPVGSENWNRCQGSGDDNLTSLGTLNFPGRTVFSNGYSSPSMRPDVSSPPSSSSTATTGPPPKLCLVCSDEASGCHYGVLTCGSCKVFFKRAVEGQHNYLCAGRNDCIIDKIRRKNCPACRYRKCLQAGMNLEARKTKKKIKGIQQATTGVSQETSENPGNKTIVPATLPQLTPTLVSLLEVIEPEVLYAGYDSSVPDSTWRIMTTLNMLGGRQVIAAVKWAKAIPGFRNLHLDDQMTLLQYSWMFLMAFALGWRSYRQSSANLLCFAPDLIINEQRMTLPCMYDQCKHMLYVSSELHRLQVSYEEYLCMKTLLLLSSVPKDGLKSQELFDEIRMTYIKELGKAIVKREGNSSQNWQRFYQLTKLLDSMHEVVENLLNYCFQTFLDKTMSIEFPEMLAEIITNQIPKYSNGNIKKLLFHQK

Progesterone receptor = target: T2, Progesterone receptor (Homo sapiens, UniProt P06401); assay: Binding affinity to human PR
T2 sequence (P06401 whole entry): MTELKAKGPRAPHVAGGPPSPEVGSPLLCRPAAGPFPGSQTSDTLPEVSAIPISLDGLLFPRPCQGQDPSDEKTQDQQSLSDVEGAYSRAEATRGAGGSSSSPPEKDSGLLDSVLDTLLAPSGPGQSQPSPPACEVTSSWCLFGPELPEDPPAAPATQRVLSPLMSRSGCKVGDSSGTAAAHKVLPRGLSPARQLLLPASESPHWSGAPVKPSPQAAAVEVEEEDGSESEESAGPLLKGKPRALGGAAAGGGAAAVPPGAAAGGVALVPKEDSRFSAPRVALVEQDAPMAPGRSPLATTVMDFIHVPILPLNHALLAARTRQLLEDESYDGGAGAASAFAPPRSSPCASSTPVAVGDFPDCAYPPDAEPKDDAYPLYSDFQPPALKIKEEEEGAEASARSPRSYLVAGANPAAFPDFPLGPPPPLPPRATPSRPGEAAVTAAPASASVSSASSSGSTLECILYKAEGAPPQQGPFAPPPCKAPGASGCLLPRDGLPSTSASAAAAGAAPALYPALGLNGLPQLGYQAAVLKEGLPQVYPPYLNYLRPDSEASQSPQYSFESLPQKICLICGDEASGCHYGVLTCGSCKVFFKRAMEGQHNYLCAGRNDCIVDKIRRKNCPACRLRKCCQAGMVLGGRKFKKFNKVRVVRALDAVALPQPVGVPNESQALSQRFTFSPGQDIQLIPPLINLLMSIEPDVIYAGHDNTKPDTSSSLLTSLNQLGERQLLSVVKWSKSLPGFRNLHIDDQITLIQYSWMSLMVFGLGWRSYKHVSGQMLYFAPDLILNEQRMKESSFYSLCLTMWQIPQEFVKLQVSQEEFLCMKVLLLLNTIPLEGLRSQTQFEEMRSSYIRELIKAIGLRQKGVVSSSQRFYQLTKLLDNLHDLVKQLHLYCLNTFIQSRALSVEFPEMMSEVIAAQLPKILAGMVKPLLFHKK

Glucocorticoid receptor [2] = target: T1, Glucocorticoid receptor; assay: Inhibition of Dexamethasone induced GR transactivation of MMTV luciferase in HeLa cells; assay type: functional, cell-based
HFF = assay: Inhibition of IL1-induced IL6 production in human foreskin fibroblast; assay type: functional, cell-based
[3] = target: T3, Mineralocorticoid receptor (Homo sapiens, UniProt P08235); assay: Binding affinity to human MR
T3 sequence (P08235 whole entry): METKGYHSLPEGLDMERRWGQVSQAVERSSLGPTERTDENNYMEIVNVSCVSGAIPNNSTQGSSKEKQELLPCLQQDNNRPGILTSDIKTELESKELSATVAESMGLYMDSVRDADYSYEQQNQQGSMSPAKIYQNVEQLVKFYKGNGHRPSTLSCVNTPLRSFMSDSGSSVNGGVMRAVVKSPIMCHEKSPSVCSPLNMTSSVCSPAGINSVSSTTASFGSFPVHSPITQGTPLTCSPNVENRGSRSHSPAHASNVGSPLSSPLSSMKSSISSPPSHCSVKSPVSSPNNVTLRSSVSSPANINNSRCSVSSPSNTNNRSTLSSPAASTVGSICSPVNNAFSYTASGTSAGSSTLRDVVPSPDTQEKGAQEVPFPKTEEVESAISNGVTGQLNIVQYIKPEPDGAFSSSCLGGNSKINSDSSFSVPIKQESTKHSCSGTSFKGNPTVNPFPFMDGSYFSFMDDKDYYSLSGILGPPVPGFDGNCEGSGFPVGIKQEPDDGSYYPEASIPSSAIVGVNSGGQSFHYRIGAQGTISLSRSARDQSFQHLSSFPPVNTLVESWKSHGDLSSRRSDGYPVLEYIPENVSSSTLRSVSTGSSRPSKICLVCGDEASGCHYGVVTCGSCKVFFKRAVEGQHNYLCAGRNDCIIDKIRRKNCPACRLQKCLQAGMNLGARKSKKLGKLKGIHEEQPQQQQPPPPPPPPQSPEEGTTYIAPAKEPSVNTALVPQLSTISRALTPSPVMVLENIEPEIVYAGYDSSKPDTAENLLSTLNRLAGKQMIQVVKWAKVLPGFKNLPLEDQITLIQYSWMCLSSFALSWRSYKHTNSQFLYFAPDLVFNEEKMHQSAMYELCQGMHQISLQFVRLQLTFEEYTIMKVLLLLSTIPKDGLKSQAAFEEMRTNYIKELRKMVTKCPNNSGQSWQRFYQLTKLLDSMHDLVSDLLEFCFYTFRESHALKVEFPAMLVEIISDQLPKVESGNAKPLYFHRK

Estrogen receptor = Estrogen receptor (Homo sapiens, UniProt Q92731+P03372); assay: Binding affinity to human ER; assay type: protein assay

Row | Structure (SMILES) | IC50 (Glucocorticoid receptor [1]) | IC50 (Progesterone receptor) | IC50 (Glucocorticoid receptor [2]) | Activity (HFF) | IC50 [3] | IC50 (Estrogen receptor)
1 | COc1ccccc1-c1ccc2c(c1)C(CSCCc1ccccc1)=CC(C)(C)N2 | 194 nM | > 2000 nM | – | – | – | –
2 | COc1ccccc1-c1ccc2c(c1)C(C)=CC(C)(C)N2 | > 2000 nM | > 2000 nM | – | – | – | –
3 | COc1ccc(F)cc1-c1ccc2c(c1)C(CSCCc1ccccc1)=CC(C)(C)N2 | 84 nM | > 2000 nM | 45 nM | inactive | > 2000 nM | > 2000 nM
4 | C=CCSCC1=CC(C)(C)Nc2ccc(-c3cccc(O)c3Cl)cc21 | 129 nM | 960 nM | – | – | – | –
5 | C=CCNCC1=CC(C)(C)Nc2ccc(-c3ccccc3OC)cc21 | > 2000 nM | > 2000 nM | – | – | – | –
6 | C=CCSCC1=CC(C)(C)Nc2ccc(-c3ccccc3OC)cc21 | 360 nM | 460 nM | – | – | – | –
7 | C=CCSCC1=CC(C)(C)Nc2ccc(-c3cccc(OC)c3)cc21 | 1000 nM | 460 nM | – | – | – | –
8 | C=CCOCC1=CC(C)(C)Nc2ccc(-c3ccccc3OC)cc21 | > 2000 nM | > 2000 nM | – | – | – | –
9 | C=CCSCC1=CC(C)(C)Nc2ccc(-c3ccccc3C(F)(F)F)cc21 | > 2000 nM | > 2000 nM | – | – | – | –
10 | COc1ccccc1-c1ccc2c(c1)C(CSC(C)=O)=CC(C)(C)N2 | > 2000 nM | 620 nM | – | – | – | –
11 | COc1ccccc1-c1ccc2c(c1)C(CSC1CCCCC1)=CC(C)(C)N2 | 371 nM | > 2000 nM | – | – | – | –
12 | C=CCSCC1=CC(C)(C)Nc2ccc(-c3ccccc3)cc21 | > 2000 nM | > 2000 nM | – | – | – | –
13 | CC1(C)C=C(CSCCc2ccccc2)c2cc(-c3cccc(O)c3Cl)ccc2N1 | 220 nM | 1400 nM | 260 nM | inactive | > 2000 nM | > 2000 nM
14 | COc1ccccc1-c1ccc2c(c1)C(CSCc1ccccc1)=CC(C)(C)N2 | > 2000 nM | 660 nM | – | – | – | –
15 | COc1ccccc1-c1ccc2c(c1)C(CSc1ccc(Cl)cc1)=CC(C)(C)N2 | 800 nM | > 2000 nM | – | – | – | –
16 | C=CCSCC1=CC(C)(C)Nc2ccc(-c3ccccc3C)cc21 | > 2000 nM | > 2000 nM | – | – | – | –
17 | COc1ccccc1-c1ccc2c(c1)C(CSCCC(C)C)=CC(C)(C)N2 | 703 nM | > 2000 nM | – | – | – | –

Row | Structure (SMILES) | IC50 (Glucocorticoid receptor [1]) | IC50 (Progesterone receptor) | IC50 (Glucocorticoid receptor [2]) | Activity (HFF) | IC50 [3] | IC50 (Estrogen receptor)
18 | CCC(C)CSCC1=CC(C)(C)Nc2ccc(-c3ccccc3OC)cc21 (centres undefined) | 303 nM | > 2000 nM | – | – | – | –
19 | C=CCSCC1=CC(C)(C)Nc2ccc(-c3ccccc3F)cc21 | > 2000 nM | 360 nM | – | – | – | –
20 | C=CCSCC1=CC(C)(C)Nc2ccc(-c3ccccc3OCC)cc21 | > 2000 nM | > 2000 nM | – | – | – | –
21 | C=CCSCC1=CC(C)(C)Nc2ccc(-c3cc(F)ccc3OC)cc21 | 190 nM | 1400 nM | – | – | – | –
22 | COc1ccccc1-c1ccc2c(c1)C(CSc1ccccc1)=CC(C)(C)N2 | 804 nM | > 2000 nM | – | – | – | –
23 | C=CCSCC1=CC(C)(C)Nc2ccc(-c3cccc(OC)c3OC)cc21 | > 2000 nM | > 2000 nM | – | – | – | –
24 | C=CCSCC1=CC(C)(C)Nc2ccc(-c3cccc(OCC)c3)cc21 | > 2000 nM | > 2000 nM | – | – | – | –
25 | C=CCSCC1=CC(C)(C)Nc2ccc(-c3ccc(OC)cc3)cc21 | > 2000 nM | > 2000 nM | – | – | – | –
26 | COc1ccccc1-c1ccc2c(c1)C(CSC1CCCC1)=CC(C)(C)N2 | 548 nM | > 2000 nM | – | – | – | –
27 | COC(=O)CSCC1=CC(C)(C)Nc2ccc(-c3ccccc3OC)cc21 | > 2000 nM | > 2000 nM | – | – | – | –
28 | C=CCSCC1=CC(C)(C)Nc2ccc(-c3ccccc3[N+](=O)[O-])cc21 | > 2000 nM | > 2000 nM | – | – | – | –
29 | C=CCSCC1=CC(C)(C)Nc2ccc(-c3ccccc3-c3ccccc3)cc21 | > 2000 nM | > 2000 nM | – | – | – | –
30 | CCCSCC1=CC(C)(C)Nc2ccc(-c3ccccc3OC)cc21 | 1020 nM | 1600 nM | – | – | – | –
31 | C=CCSCC1=CC(C)(C)Nc2ccc(-c3cc(OC)ccc3OC)cc21 | > 2000 nM | > 2000 nM | – | – | – | –
32 | C=CCSCC1=CC(C)(C)Nc2ccc(-c3c(OC)cccc3OC)cc21 | > 2000 nM | > 2000 nM | – | – | – | –
33 | CNC(=O)CSCC1=CC(C)(C)Nc2ccc(-c3ccccc3OC)cc21 | > 2000 nM | > 2000 nM | – | – | – | –
